Values quoted from earlier work in patent US10052328B2, “Therapeutic composition to treat lesions caused by Herpes Simplex Virus” (G2L TOUCH, INC., priority 2009, dated 2018).

System: cold sore (labial herpes simplex)
Settings: commercial topical cream, versus untreated cold sores

## Nc1nc(=O)c2ncn(CCC(CO)CO)c2[nH]1 [PCV, 2-amino-9-[4-hydroxy-3-(hydroxymethyl)butyl]-6,9-dihydro-3H-purin-6-one]
  reduction of the duration of a cold sore / lesion, on average: 0.5 days
